Measurements taken from patent publication US4980377A, “1-(aminophenyl)-2-aminopropanone derivatives” (Laboratoire L. Lafon, priority 1984, dated 1990).
Entries after “also recorded” stand apart in the source; their conditions may differ.

Columns and labels:
[1] = system: mice; assay: Interaction with apomorphine in mice; type: in vivo, mouse; conditions: i.p.
Procedure: Groups of 6 mice receive CRL 41 153 0.5 hour before the subcutaneous injection of 1 or 16 mg/kg of apomorphine.

[2] = system: mice; assay: Interaction with reserpine; type: in vivo, mouse; conditions: i.p.
Procedure: Four hours after the intraperitoneal injection of 2.5 mg/kg of reserpine, groups of 6 mice receive CRL 41 153.

[3] = system: rats; assay: Interaction with amphetamine; type: in vivo, rat; conditions: i.p.
Procedure: Amphetamine (2 mg/kg) is injected intraperitoneally into groups of 6 rats 30 minutes after the administration of CRL 41 153. […] 4 mg/kg and 16 mg/kg, CRL 41 153 potentiates the intensity and duration of the stereotypies induced by amphetamine.

[4] = system: rats; assay: Interaction with apomorphine in rats; type: in vivo, rat; conditions: i.p.
Procedure: CRL 41 153 is administered to groups of 6 rats 0.5 hour before the subcutaneous injection of 0.5 mg/kg of apomorphine.

[5] = system: mice; assay: Spontaneous motility; type: in vivo, mouse; conditions: i.p.
Procedure: 0.5 hour after they have received CRL 41 153, the mice (6 per dose, 12 control animals) are placed in an actimeter, where their motility is recorded for 30 minutes.

[6] = system: mice; assay: Interaction with barbital; type: in vivo, mouse; conditions: i.p., barbital 220 mg/kg
Procedure: Half an hour after the administration of CRL 41 153, groups of 10 mice receive an intraperitoneal injection of barbital (220 mg/kg).

[7] = system: mice; assay: Motility reduced by hypoxic aggression; type: in vivo, mouse; conditions: i.p.
Procedure: Half an hour after they have received CRL 41 153, the mice (10 per dose, 20 control animals) are subjected to acute hypobaric anoxia [pressure reduction of 600 mm Hg (i.e. about 8×10^4 Pa) in 90 seconds; release of vacuum in 45 seconds] and are then placed in an actimeter, where their motility is recorded for 10 minutes.

[8] = pH of solutions in distilled water; type: physicochemical
Procedure: The neuropsychopharmacological study was undertaken according to the procedures described above for CRL 41 153, CRL 41 213 being adminstered intraperitoneally, in solution in distilled water, in a volume of 20 ml/kg to male mice and a volume of 5 ml/kg to male rats, and the pH of the injected solution varying with the concentration of CRL 41 213 according to the data given in Table II below.

[9] = system: mice; assay: Overall behavior and reactivities in mice; type: in vivo, mouse; conditions: dose not stated
Procedure: (§1) In the neuropsychopharmacological study which follows, a solution of CRL 41 153 in distilled water (pH 1.5) was administered intraperitoneally in a volume of 20 ml/kg to male mice and 5 ml/kg to male rats.
(§2) Groups of three animals are observed before and then 0.25 hour, 0.50 hour, 1 hour, 2 hours, 3 hours and 24 hours after the administration of CRL 41 153.

[10] = system: gravid White New Zealand female rabbits; assay: Teratogenicity in gravid White New Zealand rabbits; type: in vivo, rabbit; conditions: 10 mg/kg daily, day 5 to day 18 of gestation; for Affected foetuses, %: normal limit 1.5%
In short: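 Fetuses harvested by cesarean on gestation day 29 were scored for number and for any malformation (limb blockade, anury, tail or skull defects, exencephaly).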

[11] = system: rats; assay: Overall behavior and reactivities in rats; type: in vivo, rat; conditions: dose not stated
Procedure: as §1, §2

[12] = system: mice; assay: Interaction with oxotremorine; type: in vivo, mouse; conditions: i.p.
Procedure: CRL 41 153 is administered to groups of 6 mice 0.5 hour before the intraperitoneal injection of 0.5 mg/kg of oxotremorine.

[13] = system: mice; assay: Four plate test, traction and electric shock; type: in vivo, mouse; conditions: i.p.
Procedure: The test is performed on groups of 10 mice 30 minutes after the administration of CRL 41 153.

[14] = system: mice; assay: Behavioral despair; type: in vivo, mouse; conditions: forcibly immersed mice, i.p.
From the text: Half an hour after they have received CRL 41 153, groups of 6 mice are placed in a beaker filled with water to a height of 6 cm. The total period of immobility between the 2nd and 6th minutes following immersion is noted.

[15] = system: CNS; assay: Neuropsychopharmacological profile as a whole; type: in vivo, mice and rats; conditions: conclusion of the tests
Procedure: as §1

[16] = system: mice; assay: Motility reduced by habituation to the enclosure; type: in vivo, mouse; conditions: i.p.
Procedure: After they have stayed In the actimeters for 18 hours, (he mice (6 per dose, 12 control animals) receive CRL 41 153. They are immediately returned to their respective enclosures and, half an hour later, their motility is recorded for 30 minutes.

[17] = system: immunity; assay: Immunological study (overall); conditions: in vivo
[18] = Particular toxicity in grouped mice; conditions: mouse, in vivo, ip
Procedure: The number of dead animals is noted after 1 hour, 2 hours, 3 hours, 4 hours and 24 hours.

## CC(C(=O)c1ccc(N)cc1)N1CCCCC1 (stereo not drawn) [CRL 41 241]
[1]
  Effect on hypothermia induced by apomorphine: antagonism of the hypothermia
[2]
  Effect on hypothermia induced by reserpine: antagonism of the hypothermia
  Effect on ptosis induced by reserpine: a decrease in the ptosis induced by reserpine
[3]
  Effect on stereotypies induced by amphetamine: potentiation of the stereotypies
[4]
  Effect on stereotypies induced by apomorphine: potentiation of the stereotypies
[5]
  Spontaneous motor activity: an increase in the spontaneous motor activity of mice
[6]
  Duration of the sleep induced by barbital: a reduction in the duration of the sleep induced by barbital
[7]
  Motor recovery of mice after hypobaric hypoxia: improvement in the motor recovery
[8]; 0.3 g/liter in distilled water
  pH: 5.0
[8]; 0.5 g/liter in distilled water
  pH: 4.5
[8]; 1 g/liter in distilled water
  pH: 3.5
[8]; 2 g/liter in distilled water
  pH: 3.0
[8]; 3 g/liter in distilled water
  pH: 2.5
[8]; 6 g/liter in distilled water
  pH: 2.0
[8]; 26 g/liter in distilled water
  pH: 1.5
[8]; 50 g/liter in distilled water
  pH: 1.0
[8]; ≤0.05 g/liter in distilled water
  pH: 5.5
[9]
  Overall behavior: observed effects (summary): excitation with hyperactivity in mice and rats; also recorded: moderate mydriasis in mice and rats
  Stereotype movements (summary): the presence of stereotype movements in mice and rats
[10]
  Affected foetuses, number: 0
  Total foetuses (live): 88
  Affected foetuses, %: 0%
[11]
  Overall behavior: observed effects (summary): excitation with hyperactivity in mice and rats; also recorded: moderate mydriasis in mice and rats
  Stereotype movements (summary): the presence of stereotype movements in mice and rats
[12]
  Effect on hypothermic action of oxotremorine: antagonism of the hypothermia
  Effect on trembling induced by oxotremorine: a very distinct reduction in the intensity of the trembling due to oxotremorine
[13]
  Effect on convulsant effects of electric shock: total antagonism of the convulsant effect of electric shock
  Number of punished passes in the four plate test: a moderate increase in the number of punished passes in the 4 plate test on mice (at high doses)
[14]
  Period of immobility due to despair: a reduction in the Period of immobility
[15]
  Antidepressant effects (overall): antidepressant-type effect
  Stimulant effects (overall): large stimulant component
  α-adrenergic stimulant effects (overall): an α-adrenergic stimulation component
[16]
  Motor activity of mice accustomed to their enclosure: resumption in the motor activity of mice accustomed to their enclosure

## CC(C(=O)c1ccc(N)cc1)N1CCSCC1 (stereo not drawn) [CRL 41 248]
[8]; 0.05 g/liter in distilled water
  pH: 5.0
[8]; 0.1 g/liter in distilled water
  pH: 4.5
[8]; 0.2 g/liter in distilled water
  pH: 4.0
[8]; 0.4 g/liter in distilled water
  pH: 3.5
[8]; 1.2-0.8 g/liter in distilled water
  pH: 3.0
[8]; 3.2 g/liter in distilled water
  pH: 2.5
[8]; 6.4 g/liter in distilled water
  pH: 2.0
[8]; 50 g/liter in distilled water
  pH: 1.5
[8]; ≤0.025 g/liter in distilled water
  pH: 5.5
[10]
  Affected foetuses, number: 1
  Total foetuses (live): 93
  Affected foetuses, %: 1.07%
[17]
  Immunological effect (overall): immunostimulant or immunomodulating effects

## COC(=O)C(c1ccccc1)C1CCCCN1 (stereo not drawn) [methylphenidate, reference compound]
[18]
  selectivity ratio: ~6

## CN1Cc2c(N)cccc2C(c2ccccc2)C1 (stereo not drawn) [nomifensin, reference compound]
[18]
  selectivity ratio: ~4
